Measured values reported in patent US20210106582A1, “COMPOUNDS AND PHARMACEUTICAL COMPOSITIONS THEREOF FOR USE IN THE TREATMENT OF FIBROTIC DISEASES” (Galapagos NV, priority 2017, published 2021).
Several values for one entry are separate records, joined by “and”; a condition that tells them apart may be missing. Equal entries are not always repeated.

Tested on: C57BL/6N male mice, bleomycin induced pulmonary fibrosis
Assay: Therapeutic bleomycin induced pulmonary fibrosis 21-day mice model
Format: in vivo
Details: individual animals, BLM, CpdA 30 mg/kg BID PO D7-D21
Experimental: The aim of the study is to test the efficacy of a test compound at three different doses in a 21-day model of bleomycin induced pulmonary fibrosis in mice.
11 week-old C57BL/6N male mice from Charles River (Italy) are maintained on 12 h light/dark cycle at 22° C. with ad libidum access to tap water and food.
On day 0, all mice in groups 2-4 receive a 1.5 U/kg oropharyngeal administration of bleomycin (BLM) to induce pulmonary fibrosis Animals in group 1 are not administered bleomycin, but instead receive a single dose of saline via the oropharyngeal route, and are considered sham control mice.
Animals are examined clinically twice daily. List of clinical signs and parameters are indicated in humane endpoints table. Animals are weighed daily starting from DO.
On day 21, lung functionality is determined. After deep anesthesia induced by an intraperitoneal injection (10 mL/kg) of a solution of xylazine (5 mg/kg) and ketamine (75 mg/kg), the trachea is exposed through midline incision and a cannula is inserted. Mice are ventilated with a tidal volume of 10 mL/kg at a frequency of 150 breaths/minute. FlexiVent (SCIREQ®) perturbations are performed three times. Deep Inflation and Pressure-Volume loops (PV loops) with stepwise increasing pressure are performed to measure the Inspiratory Capacity and stepwise pressure-driven perturbation (PVs-P). PV loops between 0 and 30 cm H2O are generated to obtain Total Lung Capacity (A). A snapshot perturbation maneuver is imposed, which is a threefold sinusoidal wave of in- and expiration controlled by the ventilator, resulting in resistance (Rrs), compliance (Crs), and elastance (Ers) of the whole respiratory system (airways, lung and chest wall). A value for each group is calculated with average FlexiVent-validated measurements recorded in each individual subject.
Then, two hours after the last dose of test substance and nintedanib, mice are sacrificed by anesthetic overdose. The lungs are excised and weighed individually. The lungs are then placed into marked bottles containing 10% buffered formalin for further histopathological evaluation.
Body weight data and lung weight data are processed using MS Excel. Statistical analysis and graphical presentation are performed using GraphPad Prism software (version 5.04).
For histopathological evaluation, whole lungs are embedded in paraffin and stained with Mallory's trichrome.
Pulmonary histological changes are assessed using Matsuse's modification of Ashcroft score (Ashcroft et al., 1988; Matsuse et al., 1999). Statistical analysis and graphical presentation is performed using GraphPad Prism software (version 5.04). Mann-Whitney test is employed.
Differences between groups are considered statistically significant when p<0.05.

For O=c1nc(OC[C@@H]2COCCO2)cc2n1CCc1cc(C#CC3CC3)ccc1-2 [Compound A, 9-Cyclopropylethynyl-2-((S)-1-[1,4]dioxan-2-ylmethoxy)-6,7-dihydro-pyrimido[6,1-a]isoquinolin-4-one], the “Compliance of the Respiratory System” value (Figure 14 panel B) was 0.034 mL/cmH2O and 0.030 mL/cmH2O and 0.035 mL/cmH2O and 0.037 mL/cmH2O and 0.036 mL/cmH2O and 0.033 mL/cmH2O and 0.041 mL/cmH2O (2×) and 0.031 mL/cmH2O and 0.038 mL/cmH2O and 0.046 mL/cmH2O and 0.042 mL/cmH2O, the “Elastance of the Respiratory System” value (Figure 14 panel C) was 29.43 cmH2O/mL and 33.18 cmH2O/mL and 28.94 cmH2O/mL and 26.99 cmH2O/mL and 27.50 cmH2O/mL and 30.18 cmH2O/mL and 24.40 cmH2O/mL and 31.90 cmH2O/mL and 26.35 cmH2O/mL and 21.92 cmH2O/mL and 23.92 cmH2O/mL and 24.49 cmH2O/mL and the “Ashcroft Score” value (Matsuse's modification, Figure 13) was 2.4 and 3.0 and 2.5 and 3.3 and 3.4 (2×) and 2.9 (2×) and 2.7 (2×) and 3.6 and 2.3 and 2.0 and 2.1. For the same compound, the “Inspiratory Capacity” value (day 21 FlexiVent, Figure 14 panel A) was 0.58 mL (2×) and 0.66 mL and 0.65 mL and 0.59 mL and 0.75 mL and 0.69 mL (2×) and 0.84 mL and 0.73 mL and 0.71 mL.
